According to ChEMBL document CHEMBL1152097, “Preparation of neurotensin analogs with a novel pro-tyr replacement” (Bioorg Med Chem Lett, 1995):

Biological target: Neurotensin receptor type 1 (Rattus norvegicus, UniProt P20789)
Test: Tested for binding affinity against Neurotensin receptor

Chain of Neurotensin receptor type 1 (P20789 whole entry): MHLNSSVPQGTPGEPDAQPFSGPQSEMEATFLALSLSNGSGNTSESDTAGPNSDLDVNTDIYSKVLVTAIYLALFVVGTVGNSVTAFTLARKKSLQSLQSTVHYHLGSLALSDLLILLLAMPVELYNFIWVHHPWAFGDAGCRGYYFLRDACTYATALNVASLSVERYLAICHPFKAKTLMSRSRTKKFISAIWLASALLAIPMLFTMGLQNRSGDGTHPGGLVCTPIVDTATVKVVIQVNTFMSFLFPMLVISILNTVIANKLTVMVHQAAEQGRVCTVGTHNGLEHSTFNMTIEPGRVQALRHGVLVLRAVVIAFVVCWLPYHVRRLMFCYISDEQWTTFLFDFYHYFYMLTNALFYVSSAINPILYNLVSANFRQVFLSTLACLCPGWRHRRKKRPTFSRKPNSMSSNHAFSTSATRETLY

Row | SMILES | Ki
1 | CC[C@H](C)[C@H](NC(=O)N(Cc1ccc(O)cc1)c1ccc(F)c(NC(=O)[C@H](CCCCN)NC(=O)OC(C)(C)C)c1)C(=O)N[C@@H](CC(C)C)C(=O)O | > 10000 nM
2 | CC[C@H](C)[C@H](NC(=O)N(Cc1ccc(O)cc1)c1cccc(NC(=O)[C@H](CCCCN)NC(=O)OC(C)(C)C)c1F)C(=O)N[C@@H](CC(C)C)C(=O)O | 2200 nM
3 | CC[C@H](C)[C@H](NC(=O)[C@H](Cc1ccc(O)cc1)c1cccc(NC(=O)[C@H](CCCCN)NC(=O)OC(C)(C)C)c1)C(=O)N[C@@H](CC(C)C)C(=O)O | 29 nM

More lines, now with the values ahead:

Row | Ki | SMILES
4 | 730 nM | CC[C@H](C)[C@H](NC(=O)N(Cc1ccc(O)cc1)c1cccc(NC[C@H](CCCCN)NC(=O)OC(C)(C)C)c1)C(=O)N[C@@H](CC(C)C)C(=O)O
5 | 890 nM | CC[C@H](C)[C@H](NC(=O)N(Cc1ccc(F)cc1)c1cccc(NC(=O)[C@H](CCCCN)NC(=O)OC(C)(C)C)c1)C(=O)N[C@@H](CC(C)C)C(=O)O
6 | 1250 nM | CC[C@H](C)[C@H](NC(=O)N(Cc1ccc(O)cc1)c1cccc(NC(=O)[C@H](CCCCN)NC(=O)OC(C)(C)C)c1)C(=O)N[C@@H](CC(C)C)C(=O)O
